Measured values as given in PubChem BioAssay (NCI).
“And” between values parts separate entries of the source, which are not always exact repeats. Equal values may be shown once.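 Values below derive from 48-hour exposures of cells grown in 96-well plates, with endpoints linearly interpolated between the two concentrations bracketing the appropriate inhibition level. GI50 is the concentration that inhibits growth by half. TGI: concentration producing complete growth inhibition.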

Tests used:
Assay in all cases: NCI-60 cell line screen, 48 h
UO-31 renal = tested on: UO-31 renal
SNB-19 CNS = tested on: SNB-19 CNS
DU-145 prostate = tested on: DU-145 prostate
COLO 205 colon = tested on: COLO 205 colon
RXF 393 renal = tested on: RXF 393 renal
A498 renal = tested on: A498 renal
K-562 leukemia = tested on: K-562 leukemia
HT29 colon = tested on: HT29 colon
HL-60(TB) leukemia = tested on: HL-60(TB) leukemia
HOP-62 NSCLC = tested on: HOP-62 NSCLC

Structure (SMILES)	TGI (UO-31 renal)	TGI (SNB-19 CNS)	TGI (DU-145 prostate)	TGI (COLO 205 colon)	TGI (RXF 393 renal)	TGI (A498 renal)	TGI (K-562 leukemia)	TGI (HT29 colon)	TGI (HL-60(TB) leukemia)	TGI (HOP-62 NSCLC)	GI50 (UO-31 renal)	GI50 (SNB-19 CNS)	GI50 (DU-145 prostate)	GI50 (COLO 205 colon)	GI50 (RXF 393 renal)	GI50 (A498 renal)	GI50 (K-562 leukemia)	GI50 (HT29 colon)	GI50 (HL-60(TB) leukemia)	GI50 (HOP-62 NSCLC)
CC(C)OC(=O)c1cc(NC(=S)OC(C)C)ccc1Cl	54.3 µM	> 56.3 µM	> 62.1 µM	22.2 µM	62.7 µM	> 51.1 µM	> 100 µM	38.6 µM	> 31.6 µM	> 100 µM										
CC(C)(C)c1cnc(CSc2cnc(NC(=O)C3CCNCC3)s2)o1	21.7 µM and > 8.99 µM	> 100 µM	5.53 µM and > 10 µM	0.207 µM and 0.24 µM	0.354 µM and 0.509 µM	0.598 µM and 0.714 µM	> 53.2 µM		0.976 µM and 0.461 µM	7.06 µM and > 8.87 µM	5.6 µM and 2.07 µM	0.244 µM and 0.259 µM	0.184 µM and 0.254 µM	0.0687 µM and 0.0561 µM	0.124 µM and 0.157 µM	0.223 µM and 0.23 µM	0.337 µM and 0.229 µM	0.181 µM and 0.182 µM	0.0937 µM and 0.0791 µM	0.282 µM and 0.343 µM
Cc1nc(Nc2ccc(Cl)c(Cl)c2)sc1C(/C=C/c1ccc2c(c1)OCO2)=N/Nc1ccc([N+](=O)[O-])cc1[N+](=O)[O-]	> 100 µM	> 100 µM	> 100 µM	> 100 µM	67.2 µM	> 100 µM	> 100 µM	> 100 µM	> 100 µM	> 84 µM										
COc1ccccc1CNCCCN1C(=O)c2ccc3c4c(ccc(c24)C1=O)C(=O)N(CCCNCCCCN)C3=O	9.92 µM	2.58 µM	2.35 µM	0.263 µM	1.41 µM	2.55 µM	1.27 µM	0.695 µM	0.527 µM	2.1 µM	1.95 µM	0.51 µM	0.664 µM	0.125 µM	0.34 µM	0.972 µM	0.298 µM	0.206 µM	0.229 µM	0.546 µM
COc1cc(OC)c(OC)cc1/C=C\c1ccnc2ccccc12	> 80.6 µM	> 74.5 µM	> 100 µM	3.86 µM	5.28 µM	5.64 µM	31.3 µM	16.1 µM	5 µM	> 62.1 µM										
COc1cc2c(cc1OC)C(Sc1ccc(Cl)cc1)c1c(nc(N)c(C#N)c1N)O2 (configuration not stated)	2.46 µM	2.86 µM	3.05 µM	2.95 µM	2.77 µM	5.01 µM	8.28 µM	4.12 µM	3.73 µM	2.88 µM	1.21 µM	1.47 µM	1.67 µM	1.43 µM	1.39 µM	1.73 µM	0.791 µM	1.88 µM	0.578 µM	1.53 µM
COc1ccc(-c2nc3sccn3c2/C=C/C(=O)c2cc(OC)c(OC)c(OC)c2)cc1	> 25.5 µM	> 100 µM	12.9 µM	13 µM	> 100 µM	6.41 µM	> 23.9 µM	11.8 µM	82.3 µM	> 25.7 µM	2.12 µM	3.32 µM	2.86 µM	2.82 µM	3.09 µM	2.52 µM	2.43 µM	3.22 µM	3.33 µM	2.53 µM
C=C1CCC2C(C)(CO)C(O)CCC2(C)C1C/C=C1\C(=O)OCC1O (configuration not stated)	> 100 µM	> 100 µM	> 100 µM	27.9 µM	33.8 µM	93.1 µM	> 100 µM	25.8 µM	> 100 µM	54.4 µM										
COc1ccc(N=C2C(=O)Nc3ccc(Br)cc32)cc1	26.5 µM	> 100 µM	> 100 µM	34.6 µM	36.9 µM	> 100 µM	33.2 µM	58.1 µM	42.7 µM	88.4 µM										
O=C(/C=C/c1ccccn1)c1ccccc1	29.9 µM	26.7 µM	25.7 µM	14.6 µM	13.1 µM	28.3 µM	> 100 µM	4.3 µM	6.75 µM	22 µM	12.2 µM	12 µM	13.1 µM	4.04 µM	3.17 µM	14.9 µM	2.53 µM	1.99 µM	1.88 µM	10.2 µM
C=C(c1ccc(C(=O)NCCCn2ccnc2)cc1)c1cc2c(cc1C)C(C)(C)CCC2(C)C	17.7 µM	> 100 µM	> 62.5 µM	3.28 µM	4.71 µM	> 100 µM	> 100 µM	6.8 µM	3.93 µM	11.6 µM	3.93 µM	2.25 µM	0.744 µM	1.12 µM	1.71 µM	25.2 µM	0.651 µM	0.509 µM	1.06 µM	2.46 µM
COc1cc(C(=O)/C=C/c2c(C)n([O-])c3ccc(Cl)cc3[n+]2=O)cc(OC)c1OC	18.1 µM	> 100 µM	> 100 µM	4.54 µM	91 µM	41 µM	> 100 µM	> 100 µM	23.5 µM	71 µM	1.82 µM	30.2 µM	4.2 µM	1.53 µM	3.37 µM	0.208 µM	3.09 µM	3.94 µM	5.76 µM	21.6 µM
Clc1cc(Cl)cc(Nc2ccc3c(OCCCN4CCOCC4)cccc3n2)c1	2.94 µM	4.39 µM	9.67 µM	3.56 µM	5.14 µM	12.1 µM	5.71 µM	3.39 µM	6.34 µM	7.03 µM	1.51 µM	2.08 µM	3.08 µM	1.77 µM	2.26 µM	2.39 µM	2.21 µM	1.76 µM	2.11 µM	2.29 µM
Cc1cc(=O)[nH]c2c1C(=O)c1c(C)cc(=O)n(C)c1C2=O	0.318 µM	0.0358 µM	0.0479 µM	0.037 µM	0.281 µM	0.36 µM	> 10 µM	0.208 µM	0.374 µM	0.0999 µM										
N#CC(C#N)=C/C=C/c1ccccc1[N+](=O)[O-]	> 10 µM	> 10 µM	> 10 µM	> 10 µM	9.53 µM	> 10 µM	> 10 µM	> 10 µM	> 10 µM	> 10 µM										
O=[N+]([O-])/C(=C/C=C/c1ccccc1)c1ccccc1	3.19 µM	10.6 µM	3.22 µM	3.35 µM	3.84 µM	9.66 µM	5 µM	7.18 µM	3.55 µM	21.4 µM	1.46 µM	3.33 µM	1.76 µM	1.83 µM	1.81 µM	3.78 µM	1.7 µM	3.23 µM	1.09 µM	7.29 µM
OCCN1CCCN(CCCN2c3ccccc3Sc3ccc(C(F)(F)F)cc32)CC1	10.6 µM	11.7 µM	17.8 µM	3.68 µM	11.2 µM	5.63 µM	3.23 µM	3.75 µM	3.74 µM	5.05 µM	2.3 µM	2.84 µM	5.61 µM	1.94 µM	2.59 µM	1.69 µM	1.57 µM	1.76 µM	1.91 µM	2.25 µM
CN(C)CC(=O)N1CCc2c([nH]c3ccccc23)C1c1cccnc1 (configuration not stated)	> 100 µM	> 100 µM	> 100 µM	> 100 µM	> 100 µM	> 100 µM	> 100 µM	> 100 µM	> 100 µM	> 100 µM			> 100 µM	99.7 µM	> 100 µM					
